Test results published in US11180496B2 (Daewoong Pharmaceutical Co., Ltd., priority 2017, dated 2021).
pIC50: −log10 of the molar value.

Key:
BTK = target: T1, BTK (Homo sapiens, UniProt Q06187); experiment: BTK inhibitory activity, ADP-Glo + BTK Kinase enzyme system kit (Promega); type: biochemical; details: BTK enzyme 1 ng/uL, ATP 10 uM, 15 min preincubation, luminescence, duplicate
T1 construct: purchased Promega
Protocol: (§1) The inhibitory activity against BTK and ITK of the compounds prepared in Examples above were measured as follows.
(§2) The inhibitory activity against BTK was evaluated using ‘ADP-Glo™+BTK Kinase enzyme system’ kit from Promega. […] 5 uL of substrate and 5 uL of ATP prepared at a final concentration of 10 uM were added to all wells of the plate after completion of the reaction, and allowed to react at 30° C. for 1 hour. All wells of the plate after completion of the reaction were treated with 25 uL of ADP-Glo™ reagent and reacted at 30° C. for 40 minutes. Then, 50 uL of the kinase detection buffer was applied to all wells of the plate, and then the light was blocked and reacted at 30° C. for 30 minutes. For the plate for which all reactions were completed, the luminescence was measured and the results were calculated. The evaluation was performed in duplicate. The respective values of negative and positive controls, depending on whether the enzymes were added without treatment of the compound, were determined, and IC50 was calculated based on the values.

ITK = target: T2, ITK (Homo sapiens, UniProt Q08881); experiment: ITK inhibitory activity, ADP-Glo + ITK Kinase enzyme system kit (Promega); type: biochemical; details: ITK enzyme 0.4 ng/uL, ATP 25 uM, 15 min preincubation, luminescence, duplicate
T2 construct: purchased Promega
T2 sequence (Q08881 1-620): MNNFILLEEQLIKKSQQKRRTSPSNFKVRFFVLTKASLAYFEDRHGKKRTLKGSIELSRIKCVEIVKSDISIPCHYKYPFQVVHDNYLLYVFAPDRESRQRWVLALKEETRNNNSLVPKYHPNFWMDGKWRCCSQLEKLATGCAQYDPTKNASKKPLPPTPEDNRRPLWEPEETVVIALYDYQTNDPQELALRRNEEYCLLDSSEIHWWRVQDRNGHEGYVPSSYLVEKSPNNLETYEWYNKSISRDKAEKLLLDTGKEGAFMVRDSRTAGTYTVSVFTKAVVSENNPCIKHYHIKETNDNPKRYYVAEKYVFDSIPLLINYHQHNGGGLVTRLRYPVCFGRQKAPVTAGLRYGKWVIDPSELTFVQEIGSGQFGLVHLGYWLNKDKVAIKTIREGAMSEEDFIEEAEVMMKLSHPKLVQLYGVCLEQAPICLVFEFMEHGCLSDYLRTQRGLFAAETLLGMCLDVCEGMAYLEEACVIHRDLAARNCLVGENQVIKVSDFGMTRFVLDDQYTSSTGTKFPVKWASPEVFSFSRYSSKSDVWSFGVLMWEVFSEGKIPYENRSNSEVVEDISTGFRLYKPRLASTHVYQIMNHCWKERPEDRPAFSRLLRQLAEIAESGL
Protocol: as §1
as §2, with “ITK” for “BTK”, “‘ADP-Glo™+ITK” for “‘ADP-Glo™+BTK”, “25” for “10”

T1 sequence (Q06187 whole entry): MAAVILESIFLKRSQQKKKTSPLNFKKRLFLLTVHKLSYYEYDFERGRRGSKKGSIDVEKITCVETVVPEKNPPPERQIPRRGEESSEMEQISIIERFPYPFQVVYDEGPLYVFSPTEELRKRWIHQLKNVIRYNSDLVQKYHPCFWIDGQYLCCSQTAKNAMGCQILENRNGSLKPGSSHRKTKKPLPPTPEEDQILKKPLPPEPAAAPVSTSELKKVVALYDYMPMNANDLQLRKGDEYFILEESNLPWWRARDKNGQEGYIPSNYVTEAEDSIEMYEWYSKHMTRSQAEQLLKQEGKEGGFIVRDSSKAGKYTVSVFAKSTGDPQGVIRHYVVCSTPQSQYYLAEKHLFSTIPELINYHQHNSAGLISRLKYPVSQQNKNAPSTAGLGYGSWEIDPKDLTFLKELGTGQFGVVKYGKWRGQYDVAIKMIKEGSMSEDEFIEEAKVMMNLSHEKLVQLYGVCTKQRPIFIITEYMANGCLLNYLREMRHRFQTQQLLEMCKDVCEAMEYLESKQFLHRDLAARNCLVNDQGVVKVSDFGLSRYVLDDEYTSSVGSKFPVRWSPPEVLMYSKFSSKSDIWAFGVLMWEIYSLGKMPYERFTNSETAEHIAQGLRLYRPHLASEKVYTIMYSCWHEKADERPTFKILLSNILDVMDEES

SMILES | pIC50 (BTK) | pIC50 (ITK)
C=CC(=O)N1CCC[C@@H](n2nc(-c3ccc(C(=O)Nc4ccccn4)cc3)c3c(N)ncc(C)c32)C1 [Example 45, (R)-4-(1-(1-acryloylpiperidin-3-yl)-4-amino-7-methyl-1H-pyrazolo[4,3-c]pyridin-3-yl)-N-(pyridin-2-yl)benzamide] | 7.95 | 7.18
C=CC(=O)N1CC[C@H](n2nc(-c3ccc(C(=O)Nc4ccccc4)cc3)c3c(N)ncc(-c4cnn(C(F)F)c4)c32)C1 [Example 46, (S)-4-(1-(1-acryloylpyrrolidin-3-yl)-4-amino-7-(1-(difluoromethyl)-1H-pyrazol-4-yl)-1H-pyrazolo[4,3-c]pyridin-3-yl)-N-phenylbenzamide] | < 6.40 | < 6.00
C=CC(=O)N1CC[C@H](n2nc(-c3ccc(C(=O)Nc4ccccc4)cc3)c3c(N)nccc32)C1 [Example 47, (S)-4-(1-(1-acryloylpyrrolidin-3-yl)-4-amino-1H-pyrazolo[4,3-c]pyridin-3-yl)-N-phenylbenzamide] | 6.75 | < 6.00
CC#CC(=O)N1CC[C@H](n2nc(-c3ccc(C(=O)Nc4ccccc4)cc3)c3c(N)nccc32)C1 [Example 48, (S)-4-(4-amino-1-(1-but-2-ynoylpyrrolidin-3-yl)-1H-pyrazolo[4,3-c]pyridin-3-yl)-N-phenylbenzamide] | < 6.40 | < 6.00
C=CC(=O)N1CC2CC1[C@H](n1nc(-c3ccc(C(=O)Nc4ccccn4)cc3F)c3c(N)nccc31)C2 (stereo partly drawn) [Example 51, 4-(1-((6R)-2-acryloyl-2-azabicyclo[2.2.1]heptan-6-yl)-4-amino-1H-pyrazolo[4,3-c]pyridin-3-yl)-3-fluoro-N-(pyridin-2-yl)benzamide] | 9.30 | 7.51
C=C(C)C(=O)N1CCC[C@@H](n2nc(-c3ccc(C(=O)Nc4ccccn4)cc3F)c3c(N)nccc32)C1 [Example 54, (R)-4-(4-amino-1-(1-methacryloylpiperidin-3-yl)-1H-pyrazolo[4,3-c]pyridin-3-yl)-3-fluoro-N-(pyridin-2-yl)benzamide] | 7.11 | < 6.00
C=CC(=O)N1CCC[C@@H](n2nc(-c3ccc(C(=O)Nc4ccccn4)cc3Cl)c3c(N)nccc32)C1 [Example 56, (R)-4-(1-(1-acryloylpiperidin-3-yl)-4-amino-1H-pyrazolo[4,3-c]pyridin-3-yl)-3-chloro-N-(pyridin-2-yl)benzamide] | 9.40 | 9.22
C=CC(=O)N1CCC[C@@H](n2nc(-c3ccc(C(=O)Nc4ccccn4)cc3OC)c3c(N)nccc32)C1 [Example 57, (R)-4-(1-(1-acryloylpiperidin-3-yl)-4-amino-1H-pyrazolo[4,3-c]pyridin-3-yl)-3-methoxy-N-(pyridin-2-yl)benzamide] | 9.30 | 7.94
C=CC(=O)N1CCC[C@@H](n2nc(Nc3cnn(C4CC4)c3)c3c(N)nccc32)C1 [Example 61, (R)-1-(3-(4-amino-3-(1-cyclopropyl-1H-pyrazol-4-ylamino)-1H-pyrazolo[4,3-c]pyridin-1-yl)piperidin-1-yl)prop-2-en-1-one] | 6.73 | < 6.00
C=CC(=O)N1CCC[C@@H](n2nc(Br)c3c(N)nccc32)C1 [Example 62, (R)-1-(3-(4-amino-3-bromo-1H-pyrazolo[4,3-c]pyridin-1-yl)piperidin-1-yl)prop-2-en-1-one] | 8.20 | 8.09
C=CC(=O)N1CCC[C@@H](n2nc(-c3ccc(C(=O)Nc4ccccn4)cc3Cl)c3c(N)ncc(C#N)c32)C1 [Example 66, (R)-4-(1-(1-acryloylpiperidin-3-yl)-4-amino-7-cyano-1H-pyrazolo[4,3-c]pyridin-3-yl)-3-chloro-N-(pyridin-2-yl)benzamide] | 8.89 | 8.89
C=CC(=O)N1CCC[C@@H](n2nc(-c3ccc(C(=O)Nc4ccccn4)cc3Cl)c3c(N)ncc(-c4cnn(C)c4)c32)C1 [Example 67, (R)-4-(1-(1-acryloylpiperidin-3-yl)-4-amino-7-(1-methyl-1H-pyrazol-4-yl)-1H-pyrazolo[4,3-c]pyridin-3-yl)-3-chloro-N-(pyridin-2-yl)benzamide] | 8.70 | 8.57

Second part, the compound after the results:

pIC50 (BTK) | pIC50 (ITK) | SMILES
8.92 | 8.48 | C=CC(=O)N1CCC[C@@H](n2nc(-c3ccc(C(=O)Nc4ccccn4)cc3F)c3c(N)ncc(Cl)c32)C1 [Example 49, (R)-4-(1-(1-acryloylpiperidin-3-yl)-4-amino-7-chloro-1H-pyrazolo[4,3-c]pyridin-3-yl)-3-fluoro-N-(pyridin-2-yl)benzamide]
8.89 | 8.68 | C=CC(=O)N1CCC[C@@H](n2nc(-c3ccc(C(=O)Nc4ccccn4)cc3F)c3c(N)ncc(I)c32)C1 [Example 50, (R)-4-(1-(1-acryloylpiperidin-3-yl)-4-amino-7-iodo-1H-pyrazolo[4,3-c]pyridin-3-yl)-3-fluoro-N-(pyridin-2-yl)benzamide]
8.80 | 7.29 | C=CC(=O)N1CC(n2nc(-c3ccc(C(=O)Nc4ccccn4)cc3F)c3c(N)nccc32)C1 [Example 52]
9.30 | 8.37 | C=CC(=O)N1CCC[C@@H](n2nc(-c3ccc(C(=O)Nc4ccccn4)cc3F)c3c(N)ncc(C#N)c32)C1 [Example 53, (R)-4-(1-(1-acryloylpiperidin-3-yl)-4-amino-7-cyano-1H-pyrazolo[4,3-c]pyridin-3-yl)-3-fluoro-N-(pyridin-2-yl)benzamide]
8.19 | 6.91 | C=C(C)C(=O)N1CCC[C@@H](n2nc(-c3ccc(C(=O)Nc4ccccn4)cc3F)c3c(N)ncc(Cl)c32)C1 [Example 55, (R)-4-(4-amino-7-chloro-1-(1-methacryloylpiperidin-3-yl)-1H-pyrazolo[4,3-c]pyridin-3-yl)-3-fluoro-N-(pyridin-2-yl)benzamide]
8.06 | 8.03 | C=CC(=O)N1CCC[C@@H](n2nc(-c3ccc(C(=O)Nc4ccccn4)cc3Cl)c3c(N)ncc(Cl)c32)C1 [Example 58, (R)-4-(1-(1-acryloylpiperidin-3-yl)-4-amino-7-chloro-1H-pyrazolo[4,3-c]pyridin-3-yl)-3-chloro-N-(pyridin-2-yl)benzamide]
8.43 | 7.59 | C=CC(=O)N1CCC[C@@H](n2nc(-c3ccc(C(=O)Nc4ccccn4)cc3OC)c3c(N)ncc(Cl)c32)C1 [Example 59, (R)-4-(1-(1-acryloylpiperidin-3-yl)-4-amino-7-chloro-1H-pyrazolo[4,3-c]pyridin-3-yl)-3-methoxy-N-(pyridin-2-yl)benzamide]
9.40 | 6.58 | C=CC(=O)N1CC(n2nc(-c3ccc(C(=O)Nc4ccccn4)cc3F)c3c(N)ncc(Cl)c32)C1 [Example 60, 4-(1-(1-acryloylazetidin-3-yl)-4-amino-7-chloro-1H-pyrazolo[4,3-c]pyridin-3-yl)-3-fluoro-N-(pyridin-2-yl)benzamide]
8.51 | 7.52 | C=CC(=O)N1CC(n2nc(-c3ccc(C(=O)Nc4ccccn4)cc3Cl)c3c(N)nccc32)C1 [Example 63, 4-(1-(1-acryloylazetidin-3-yl)-4-amino-1H-pyrazolo[4,3-c]pyridin-3-yl)-3-chloro-N-(pyridin-2-yl)benzamide]
8.96 | 7.65 | C=CC(=O)N1CC(n2nc(-c3ccc(C(=O)Nc4ccccn4)cc3Cl)c3c(N)ncc(Cl)c32)C1 [Example 64, 4-(1-(1-acryloylazetidin-3-yl)-4-amino-7-chloro-1H-pyrazolo[4,3-c]pyridin-3-yl)-3-chloro-N-(pyridin-2-yl)benzamide]
9.40 | 8.89 | C=CC(=O)N1CCC[C@@H](n2nc(-c3ccc(C(=O)Nc4ccccn4)cc3Cl)c3c(N)ncc(I)c32)C1 [Example 65, (R)-4-(1-(1-acryloylpiperidin-3-yl)-4-amino-7-iodo-1H-pyrazolo[4,3-c]pyridin-3-yl)-3-chloro-N-(pyridin-2-yl)benzamide]
